In article PMC9506420, “Biological Evaluation of 3-Azaspiro[Bicyclo[3.1.0]Hexane-2,5′-Pyrimidines] as Potential Antitumor Agents” (International Journal of Molecular Sciences, 2022):
Where “and” joins values, the source holds several entries; their conditions need not be identical. Equal values may be shown once. Read-outs that look alike come from different tables or passages of the source.

Assays:
[1] = tested on: HeLa cells; experiment: Annexin V-FITC/DAPI cell death analysis, HeLa; assay type: cell-based, human; conditions: 10 μg/mL, 72 h; for Necrotic Cells, %: control 0.5 ± 0.3; for Early Apoptotic Cells, %: control 4.5 ± 0.7; for Late Apoptotic Cells, %: control 5.9 ± 0.4; for Live Cells, %: control 89.0 ± 0.7
Procedure: (§1) The results of cell death detection after the exposure of the HeLa and CT26 cell lines to spiro-fused cycloadducts 4c–i at a dose of 10 μg/mL for 72 h, using Annexin V-FITC/DAPI staining, are shown in Figure 6 and Figure 7, respectively.
(§2) Cells were seeded in 24-well plates, 5 × 10^4 cells per well. After 24 h incubation, cells were treated with compounds 4c–i for 72 h. Then, cells were washed, harvested by trypsinisation, stained with Annexin V-FITC ([…]) and DAPI (Thermo Fisher Scientific, Waltham, MA, USA), in accordance with the protocol of the manufacturer, and analyzed by flow cytometry. The proapoptotic effect of azaspiro[bicyclo[3.1.0]hexane-2,5′-pyrimidines] 4c–i was evaluated by an Annexin V-FITC/DAPI (AV/DAPI) dual-staining assay to examine the occurrence of phosphatidylserine externalization, which facilitated the detection of live cells (lower-left quadrant; AV−/DAPI−), early apoptotic cells (upper-left quadrant; AV+/DAPI−), late apoptotic cells (upper-right quadrant; AV+/DAPI+), and necrotic cells (lower-right quadrant; AV−/DAPI+).

[2] = tested on: HeLa cells; experiment: Cell cycle distribution by flow cytometry (propidium iodide), HeLa; assay type: cell-based, human; conditions: for SubG1 (%) / G2/M (%) / S (%) / G0/G1 (%): HeLa, 10 μg/mL, 24 h; for SubG1 (%): control 2.3 ± 0.4; for G2/M (%): control 12.2 ± 1.3; for S (%): control 12.5 ± 1.7; for G0/G1 (%): control 73.1 ± 2.6
Procedure: (§3) One of the indicators of the influence of biologically active products on the cells is the changed distribution of cells during different stages of the cell cycle. In this work, recently synthesized compounds were tested using flow cytometry for their effect on the distribution of cells in the cell cycle (G0/G1, G2/M, and S). Figure 8, Figure 9 and Figure 10 and Table 3 show the typical data after processing the results from three replicates of each experiment.
(§4) The distribution of HeLa and CT26 cells in the G0/G1-, S-, and G2/M-phases of the cell cycle was obtained by quantification of DNA content in propidium-iodide-stained cells using flow cytometry. Briefly, cells were seeded in 24-well plates at a density of 5 × 10^4 cells per well. After 24 h incubation, cells were exposed to 10 μg/mL of compounds 4c–i (the structure is provided in Scheme 1) for 24 h. The effects of compounds 4d, 4e, 4g, 4h were additionally tested at concentrations of 2 and 5 μg/mL. After incubation with drugs, the cells were detached by exposure to trypsin-EDTA for 5 min at 37 °C and then collected by pipetting. This was followed by treatment with 0.2 mg/mL saponin (Fluka, Waltham, MA, USA), 0.25 mg/mL RNase (Sigma-Aldrich, St. Louis, MO, USA), and 0.05 mg/mL propidium iodide (Invitrogen, Carlsbad, CA, USA). After washing, the samples were analyzed by standard flow cytometer (BD FACSCanto II, Becton Dickinson, San Jose, CA, USA). Then, 10,000 events were acquired for the sample. Data processing was performed using BD FACSDiva 9.0 software.

[3] = tested on: human cervical carcinoma (HeLa) cell line; experiment: MTS antiproliferative (cytotoxicity) assay, HeLa; assay type: cell-based; conditions: HeLa; for SI (selectivity index), HeLa: Vero as reference cell line; for IC50: Homo sapiens
Procedure: (§5) The cytotoxicity of synthesized 3-azaspiro[bicyclo[3.1.0]hexane-2,5′-pyrimidines] 4 against human erythroleukemia (K562), cervical carcinoma (HeLa), and T lymphocyte (Jurkat), as well as mouse colon carcinoma (CT26) and African green monkey kidney epithelial (Vero) cell lines as reference, was evaluated in vitro by the standard MTS assay for 24 and 72 h.
(§6) All the cell lines (human cervical carcinoma (HeLa), erythroleukemia (K-562), and T lymphocyte (Jurkat) as well as mouse colon carcinoma (CT26) and African green monkey kidney epithelial (Vero)) were obtained from the cell repository “Vertebrate cell culture collection” (supported by the Ministry of Science and Higher Education of the Russian Federation, agreement №075-15-2021-683, Institute of Cytology, Russian Academy of Sciences, Saint Petersburg, Russia). HeLa, Jurkat, and Vero cells were cultured in DMEM (HyClone, South Logan, UT, USA) supplemented with 10% (v/v) fetal bovine serum (Hyclone, GE Healthcare Life Sciences, Logan, UT, USA), and gentamicin (Sigma-Aldrich, St. Louis, MO, USA) at 37 °C in a humidified atmosphere with 5% CO2. K-562 and CT26 cells were grown at RPMI medium (Hyclone, GE Healthcare Life Sciences, Logan, UT, USA), with the same supplements and conditions.
(§7) To evaluate the in vitro toxicity of compounds synthesized, cells were seeded into 96-well plates at a density of 5 × 10^3 cells per well. On the next day, tested compounds were added to the wells at concentrations ranging from […], followed by incubation for 1 and 3 days. Cell proliferation was determined by adding 20 μL of MTS reagent (BioVision, Milpitas, CA, USA) stock solution per well. Each plate was incubated for 2 h at 37 °C in a humidified, 5% CO2 atmosphere. The plates were then read at 495 nm using plate spectrophotometer (Multiskan GO, Thermo Fisher Scientific, Waltham, MA, USA). All samples were measured in triplicates.

[4] = tested on: African green monkey kidney epithelial (Vero) cell line; experiment: MTS antiproliferative (cytotoxicity) assay, Vero (reference); assay type: cell-based; conditions: Chlorocebus sabaeus, Vero
Procedure: as §5, §6, §7

[5] = tested on: CT26 cells; experiment: Annexin V-FITC/DAPI cell death analysis, CT26; assay type: cell-based, mouse; conditions: CT26, 10 μg/mL, 72 h; for Necrotic Cells, %: control 0.0 ± 0.0; for Late Apoptotic Cells, %: control 0.9 ± 0.4; for Early Apoptotic Cells, %: control 10.5 ± 0.7; for Live Cells, %: control 88.5 ± 1.1
Procedure: as §1, §2

[6] = tested on: CT26 cells; experiment: Cell cycle distribution by flow cytometry (propidium iodide), CT26; assay type: cell-based, mouse; conditions: for SubG1 (%) / G2/M (%) / S (%) / G0/G1 (%): CT26, 10 μg/mL, 24 h; for SubG1 (%): control 3.6 ± 0.6; for G2/M (%): control 12.3 ± 0.9; for S (%): control 40.1 ± 1.5; for G0/G1 (%): control 44.0 ± 1.7; for cytostatic effect (cell cycle), CT26: CT26 cell line
Procedure: as §3, §4

[7] = tested on: mouse colon carcinoma (CT26) cell line; experiment: MTS antiproliferative (cytotoxicity) assay, CT26; assay type: cell-based; conditions: for SI (selectivity index), CT26: Vero as reference cell line; for IC50: Mus musculus
Procedure: as §5, §6, §7

[8] = tested on: human erythroleukemia (K562) cell line; experiment: MTS antiproliferative (cytotoxicity) assay, K562; assay type: cell-based; conditions: for IC50: Homo sapiens; for SI (selectivity index), K562: Vero as reference cell line
Procedure: as §5, §6, §7

[9] = 24 h, read-out: IC50, HeLa, 24 h
[10] = 72 h, read-out: IC50, HeLa, 72 h
[11] = 24 h, read-out: IC50, Vero, 24 h
[12] = 72 h, read-out: IC50, Vero, 72 h
[13] = CT26, 24 h, read-out: IC50, CT26, 24 h
[14] = CT26, 72 h, read-out: IC50, CT26, 72 h
[15] = K562, 24 h, read-out: IC50, K562, 24 h
[16] = K562, 72 h, read-out: IC50, K562, 72 h

O=C1NC(=O)C2(N[C@@H](c3ccccc3)[C@@]3(c4ccccc4)[C@H](c4ccccc4)[C@@]23c2ccccc2)C(=O)N1 [Compound 4i]
Necrotic Cells, % [1]: 2.1 ± 0.9 % | Early Apoptotic Cells, % [1]: 12.6 ± 0.8 % | Late Apoptotic Cells, % [1]: 17.3 ± 1.4 % | Live Cells, % [1]: 67.9% and 67.9 ± 2.4 % | SubG1 (%) [2]: 20.1 ± 1.3 % | G2/M (%) [2]: 9.9 ± 0.8 % | S (%) [2]: 18.1 ± 2.4 % | G0/G1 (%) [2]: 51.8 ± 4.0 % | SI (selectivity index), HeLa [3]: 2.0 | IC50 [3, 9]: 10 ± 2 µM | IC50 [3, 10]: 12 ± 6 µM | IC50 [4, 11]: 97 ± 12 µM | IC50 [4, 12]: 23 ± 4 µM | Necrotic Cells, % [5]: 0.4 ± 0.1 % | Late Apoptotic Cells, % [5]: 19.5 ± 0.5 % | Early Apoptotic Cells, % [5]: 4.0 ± 0.1 % | Live Cells, % [5]: 76.2 ± 0.3 % | SubG1 (%) [6]: 7.2 ± 2.2 % | G2/M (%) [6]: 22.4 ± 1.7 % | S (%) [6]: 37.2 ± 0.2 % | G0/G1 (%) [6]: 33.2 ± 0.6 % | cytostatic effect (cell cycle), CT26 [6]: best effect | SI (selectivity index), CT26 [7]: 2.0 | IC50 [7, 13]: 16 ± 2 µM | IC50 [7, 14]: 12 ± 2 µM | IC50 [8, 15]: 26 ± 4 µM | IC50 [8, 16]: 8 ± 4 µM | SI (selectivity index), K562 [8]: 2.9

CSCC[C@@H]1NC2(C(=O)NC(=O)NC2=O)[C@]2(c3ccccc3)[C@@H](c3ccccc3)[C@]12c1ccccc1 [Compound 4h]
Necrotic Cells, % [1]: 1.9 ± 0.2 % | Early Apoptotic Cells, % [1]: 9.8 ± 1.0 % | Late Apoptotic Cells, % [1]: 15.3 ± 0.5 % | Live Cells, % [1]: 72.2% and 72.2 ± 0.4 % | SubG1 (%) [2]: 9.9 ± 7.8 % | G2/M (%) [2]: 12.6 ± 0.8% | S (%) [2]: 13.9 ± 1.8% | G0/G1 (%) [2]: 63.6 ± 6.8 % | SI (selectivity index), HeLa [3]: 1.0 | IC50 [3, 9]: 28 ± 2 µM | IC50 [3, 10]: 24 ± 6 µM | IC50 [4, 11]: 31 ± 4 µM | IC50 [4, 12]: 22 ± 4 µM | Necrotic Cells, % [5]: 0.9 ± 0.3 % | Late Apoptotic Cells, % [5]: 24.0 ± 0.7 % | Early Apoptotic Cells, % [5]: 4.8 ± 0.5 % | Live Cells, % [5]: 70.3 ± 0.6 % | SubG1 (%) [6]: 10.8 ± 2.3 % | G2/M (%) [6]: 18.9 ± 6.8 % | S (%) [6]: 32.0 ± 0.6 % | G0/G1 (%) [6]: 38.3 ± 7.9 % | cytostatic effect (cell cycle), CT26 [6]: best effect | SI (selectivity index), CT26 [7]: 1.4 | IC50 [7, 13]: 22 ± 2 µM | IC50 [7, 14]: 16 ± 2 µM | IC50 [8, 15]: 20 ± 4 µM | IC50 [8, 16]: 10 ± 2 µM | SI (selectivity index), K562 [8]: 2.2

CCCCCC[C@@H]1NC2(C(=O)NC(=O)NC2=O)[C@]2(c3ccccc3)[C@@H](c3ccccc3)[C@]12c1ccccc1 [Compound 4g]
Necrotic Cells, % [1]: 6.3 ± 2.8 % | Early Apoptotic Cells, % [1]: 38.5 ± 1.9 % | Late Apoptotic Cells, % [1]: 38.0 ± 6.9 % | Live Cells, % [1]: 17.1% and 17.1 ± 3.5 % | cytostatic effect (cell cycle), HeLa ([2]; HeLa cell line): strongest cytostatic effect | SubG1 (%) [2]: 39.5 ± 5.0 % | G2/M (%) [2]: 5.3 ± 0.7 % | S (%) [2]: 13.3 ± 0.8% | G0/G1 (%) [2]: 41.8 ± 3.0 % | SI (selectivity index), HeLa [3]: 1.1 | IC50 [3, 9]: 15 ± 2 µM | IC50 [3, 10]: 13 ± 2 µM | IC50 [4, 11]: 33 ± 6 µM | IC50 [4, 12]: 14 ± 2 µM | Necrotic Cells, % [5]: 0.3 ± 0.1 % | Late Apoptotic Cells, % [5]: 10.0 ± 0.3 % | Early Apoptotic Cells, % [5]: 5.5 ± 0.1 % | Live Cells, % [5]: 84.2 ± 0.3 % | SubG1 (%) [6]: 1.9 ± 0.5 % | G2/M (%) [6]: 19.4 ± 4.7 % | S (%) [6]: 17.0 ± 4.3 % | G0/G1 (%) [6]: 61.7 ± 9.4 % | SI (selectivity index), CT26 [7]: 1.2 | IC50 [7, 13]: 22 ± 2 µM | IC50 [7, 14]: 12 ± 2 µM | IC50 [8, 15]: 19 ± 2 µM | IC50 [8, 16]: 10 ± 2 µM | SI (selectivity index), K562 [8]: 1.4
